target: T1, human CXCR2 receptor (Homo sapiens, UniProt P25025); experiment: [35S]-GTPγS binding assay for human CXCR2 receptor using SPA technology; type: biochemical; conditions: CHO-K1 membranes expressing human CXCR2, 100 nM IL-8
T1 construct: purchased Biosignal Packard Inc; host or cells: CHO-K1 (Chinese hamster ovary) cell membranes
T1 sequence (P25025 1-360): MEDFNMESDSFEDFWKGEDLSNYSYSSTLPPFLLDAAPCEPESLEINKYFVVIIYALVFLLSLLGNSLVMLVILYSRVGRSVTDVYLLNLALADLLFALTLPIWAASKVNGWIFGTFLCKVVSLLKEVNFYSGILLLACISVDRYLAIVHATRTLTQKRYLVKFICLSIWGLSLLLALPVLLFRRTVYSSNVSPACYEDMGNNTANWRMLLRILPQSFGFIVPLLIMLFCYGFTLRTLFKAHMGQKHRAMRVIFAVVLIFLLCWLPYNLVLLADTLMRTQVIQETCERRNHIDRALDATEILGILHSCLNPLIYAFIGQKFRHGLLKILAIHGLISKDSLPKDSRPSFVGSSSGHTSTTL
From the text: [^35S]-GTPγS Binding Assay for Human CXCR2 Receptor Using SPA Technology
[^35S]-GTPγS (with specific activity 1082 Ci/mmol) and wheat germ agglutinin poly vinyl toluene scintillation proximity beads are purchased from Amersham Pharmacia Biotech. The Chinese hamster ovary cell (CHO-K1) membranes expressing human CXCR2 receptors are purchased from Biosignal Packard Inc. All other chemicals are of analytical grade. White non-binding surface 96 well Optiplate™ microplates are obtained from Packard. Recombinant human IL-8 is synthesised, cloned and expressed in Escherichia coli as described previously (Lindley I, et al., Proc. Natl. Acad. Sci., 1988, 85(23):9199).
The assay is performed in duplicate in 96 well Optiplate™ microplate in a final volume of 250 μl per well. Compounds are diluted in DMSO (0.5% final concentration) and incubated in 20 mM HEPES buffer pH 7.4 containing 10 mM MgCl2, 100 mM NaCl, 1 mM EDTA plus 100 nM IL-8, 50 μM GDP and 500 pM [^35S]GTPγS per well. SPA beads (1 mg/well final concentration) were pre-mixed with the membranes (10 μg/well final concentration) in assay buffer: 20 mM HEPES buffer pH 7.4 containing 10 mM MgCl2, 100 mM NaCl, 1 mM EDTA. The bead membrane mixture is added to each well, plates are sealed and incubated at room temperature for 60 minutes. The plate is centrifuged and read on Packard TopCount™ scintillation counter, program [^35S dpm] for 1 min/well. Data are expressed as the % response to 100 nM IL-8 minus basal.

SMILES	IC50
CCCC(CCC)Nc1c(Nc2ccc(Cl)c(S(=O)(=O)N(C)OC)c2O)c(=O)c1=O [Example 2.57, 6-chloro-3-(2-(heptan-4-ylamino)-3,4-dioxocyclobut-1-enylamino)-2-hydroxy-N-methoxy-N-methylbenzenesulfonamide]	26 nM
CC[C@@H](Nc1c(Nc2ccc(Cl)c(S(=O)(=O)N(CC)OC)c2O)c(=O)c1=O)c1ccc(C)o1 [Example 2.43, (R)-6-chloro-N-ethyl-2-hydroxy-N-methoxy-3-(2-(1-(5-methylfuran-2-yl)propylamino)-3,4-dioxocyclobut-1-enylamino)benzenesulfonamide]	17 nM
CC[C@@H](Nc1c(Nc2ccc(Cl)c(S(=O)(=O)N(C)OC)c2O)c(=O)c1=O)[C@H]1CC[C@@H](C)O1 [Example 6, 6-Chloro-2-hydroxy-N-methoxy-N-methyl-3-{2-[(R)-1-((2R,5R)-5-methyl-tetrahydro-furan-2-yl)-propylamino]-3,4-dioxo-cyclobut-1-enylamino}-benzene sulfonamide]	28 nM
CC[C@@H](Nc1c(Nc2ccc(Cl)c(S(=O)(=O)N(CC)OC)c2O)c(=O)c1=O)[C@H]1CCCO1 [Example 2.13, 6-Chloro-3-{3,4-dioxo-2-[(R)-(R)-1-(tetrahydro-furan-2-yl)-propylamino]-cyclobut-1-enylamino}-N-ethyl-2-hydroxy-N-methoxy-benzene sulfonamide]	6 nM
CC[C@@H](Nc1c(Nc2cccc(S(=O)(=O)N(CC)OC)c2O)c(=O)c1=O)[C@@H]1CCCO1 [Example 2.71, 3-(3,4-dioxo-2-((R)-1-((S)-tetrahydrofuran-2-yl)propylamino)cyclobut-1-enylamino)-N-ethyl-2-hydroxy-N-methoxybenzenesulfonamide]	56 nM
CON(C)S(=O)(=O)c1c(Cl)ccc(Nc2c(NC3CCCC3)c(=O)c2=O)c1O [Example 2.60, 6-chloro-3-(2-(cyclopentylamino)-3,4-dioxocyclobut-1-enylamino)-2-hydroxy-N-methoxy-N-methylbenzenesulfonamide]	30 nM
CC[C@@H](Nc1c(Nc2ccc(Cl)c(S(=O)(=O)N3C[C@H](O)CO3)c2O)c(=O)c1=O)[C@H]1CC[C@@H](C)O1 [Example 2.32, 3-(4-chloro-2-hydroxy-3-((S)-4-hydroxyisoxazolidin-2-ylsulfonyl)phenylamino)-4-((R)-1-((2R,5R)-5-methyltetrahydrofuran-2-yl)propylamino)cyclobut-3-ene-1,2-dione]	11 nM
CCC(Nc1c(Nc2ccc(Cl)c(S(=O)(=O)N(C)OC)c2O)c(=O)c1=O)[C@H]1CCCO1 (stereo in doubt) [Example 4, 6-Chloro-3-{3,4-dioxo-2-[(R)-1-(tetrahydro-furan-2-yl)-propylamino]-cyclobut-1-enylamino}-2-hydroxy-N-methoxy-N-methyl-benzenesulfonamide]	13 nM
CCN(OC)S(=O)(=O)c1c(Cl)ccc(Nc2c(NC(C)C)c(=O)c2=O)c1O [Example 2.19, 6-chloro-N-ethyl-2-hydroxy-3-(2-(isopropylamino)-3,4-dioxocyclobut-1-enylamino)-N-methoxybenzenesulfonamide]	9 nM
CON(C)S(=O)(=O)c1c(Cl)ccc(Nc2c(NC(C3CC3)C3CC3)c(=O)c2=O)c1O [Example 2.17, 6-chloro-3-(2-(dicyclopropylmethylamino)-3,4-dioxocyclobut-1-enylamino)-2-hydroxy-N-methoxy-N-methylbenzenesulfonamide]	8 nM
CON(C)S(=O)(=O)c1c(Cl)ccc(Nc2c(N[C@H]3CCSC3)c(=O)c2=O)c1O [Example 3, 6-Chloro-3-{3,4-dioxo-2-[(S)-(tetrahydro-thiophen-3-yl)amino]-cyclobut-1-enylamino}-2-hydroxy-N-methoxy-N-methyl-benzenesulfonamide]	26 nM

Next, values leading:

IC50	SMILES
2 nM	CC[C@@H](Nc1c(Nc2ccc(Cl)c(S(=O)(=O)N(C)OC)c2O)c(=O)c1=O)c1ccc(C)o1 [Example 2, 6-Chloro-2-hydroxy-N-methoxy-N-methyl-3-{2-[(R)-1-(5-methyl-furan-2-yl)-propylamino]-3,4-dioxo-cyclobut-1-enylamino}-benzenesulfonamide]
19 nM	CCOC[C@H](C)Nc1c(Nc2ccc(Cl)c(S(=O)(=O)N(C)OC)c2O)c(=O)c1=O [Example 2.47, (S)-6-chloro-3-(2-(1-ethoxypropan-2-ylamino)-3,4-dioxocyclobut-1-enylamino)-2-hydroxy-N-methoxy-N-methylbenzenesulfonamide]
14 nM	CON(C)S(=O)(=O)c1c(Cl)ccc(Nc2c(NC(C)C)c(=O)c2=O)c1O [Example 2.35, 6-chloro-2-hydroxy-3-(2-(isopropylamino)-3,4-dioxocyclobut-1-enylamino)-N-methoxy-N-methylbenzenesulfonamide]
283 nM	CON(C)S(=O)(=O)c1c(Cl)ccc(Nc2c(N[C@H](C)c3cnn(C)c3)c(=O)c2=O)c1O [Example 2.95, (R)-6-chloro-2-hydroxy-N-methoxy-N-methyl-3-(2-(1-(1-methyl-1H-pyrazol-4-yl)ethylamino)-3,4-dioxocyclobut-1-enylamino)benzenesulfonamide]
5 nM	CCC(CC)Nc1c(Nc2ccc(Cl)c(S(=O)(=O)N(C)OC)c2O)c(=O)c1=O [Example 8, 6-Chloro-3-[2-(1-ethyl-propylamino)-3,4-dioxo-cyclobut-1-enylamino]-2-hydroxy-N-methoxy-N-methyl-benzenesulfonamide]
234 nM	CCC(Nc1c(Nc2ccc(Cl)c(S(=O)(=O)N(C)OC)c2O)c(=O)c1=O)c1cccc(C)n1 (stereo not shown) [Example 2.27, 6-chloro-2-hydroxy-N-methoxy-N-methyl-3-(2-(1-(6-methylpyridin-2-yl)propylamino)-3,4-dioxocyclobut-1-enylamino)benzenesulfonamide]
4 nM	CC[C@@H](Nc1c(Nc2ccc(Cl)c(S(=O)(=O)N(C)OC)c2O)c(=O)c1=O)c1ccccn1 [Example 7, 6-Chloro-3-[3,4-dioxo-2-((R)-1-pyridin-2-yl-propylamino)-cyclobut-1-enylamino]-2-hydroxy-N-methoxy-N-methyl-benzenesulfonamide]
28 nM	CCN(OC)S(=O)(=O)c1c(Cl)ccc(Nc2c(N[C@H](C)c3ccccc3)c(=O)c2=O)c1O [Example 2.58, (R)-6-chloro-3-(3,4-dioxo-2-(1-phenylethylamino)cyclobut-1-enylamino)-N-ethyl-2-hydroxy-N-methoxybenzenesulfonamide]
21 nM	COCC(C)Nc1c(Nc2ccc(Cl)c(S(=O)(=O)N(C)OC)c2O)c(=O)c1=O (stereo not shown) [Example 2.23, 6-chloro-2-hydroxy-N-methoxy-3-(2-(1-methoxypropan-2-ylamino)-3,4-dioxocyclobut-1-enylamino)-N-methylbenzenesulfonamide]
93 nM	CCC(Nc1c(Nc2ccc(Cl)c(S(=O)(=O)N(C)OC)c2O)c(=O)c1=O)c1cccnc1 (stereo not shown) [Example 2.50, 6-chloro-3-(3,4-dioxo-2-(1-(pyridin-3-yl)propylamino)cyclobut-1-enylamino)-2-hydroxy-N-methoxy-N-methylbenzenesulfonamide]
33 nM	CON(C)S(=O)(=O)c1c(Cl)ccc(Nc2c(N[C@H](C)c3ccccc3)c(=O)c2=O)c1O [Example 5, 6-Chloro-3-[3,4-dioxo-2-((R)-1-phenyl-ethylamino)-cyclobut-1-enylamino]-2-hydroxy-N-methoxy-N-methyl-benzenesulfonamide]
